Source: patent US10858340B2, “Crystal of salt of quinazoline derivative” (CHIA TAI TIANQING PHARMACEUTICAL GROUP CO., LTD., priority 2016, dated 2020)

What was measured:
[1] = Stability test of crystal: long-term test; format: physicochemical; settings: 25° C. ± 2° C., relative humidity of 60% ± 10%
Experimental: (§1) The XRPD was measured using a PHASER BRUKER D2 X-ray powder diffractometer with a wavelength of 1.54060 Å. The melting point was measured using an YRT-3 melting point apparatus (manufactured by Tianjin University). The content was determined by HPLC with reference to Chinese Pharmacopoeia, 2010 edition, Part II, Appendix V D, using octadecylsilane bonded silica gel as a filler, and ammonium formate buffer solution and acetonitrile as a mobile phase; detection wavelength of 260 nm and column temperature of 40° C. The moisture content was determined using a METTLER TOLEDO DL31 Karl Fischer moisture analyzer.
(§2) The conditions and methods for the stability test of crystal were performed according to the requirements of the Chinese Pharmacopoeia (2010 edition), Part II, Appendix XIX C, Guidelines for Stability Tests of Active Pharmaceutical Ingredients and Pharmaceutical Preparations. The crystalline Form A prepared in Example 1 was used as a test sample. A medicinal low-density polyethylene bag was used as an inner package for a sample, and polyester/aluminum/polyethylene composite bag for pharmaceutical packaging was used as an outer packaging material for a sample.

[2] = Stability test of crystal: accelerated test; format: physicochemical; settings: 40° C. ± 2° C., relative humidity of 75% ± 5%
Experimental: as §1, §2

Content of the crystalline Form A of the maleate of the compound of Formula (I) (HPLC) ([1]; 0 month): 99.4%
Moisture ([1]; 0 month): 0.17%
Content of the crystalline Form A of the maleate of the compound of Formula (I) (HPLC) ([1]; 3 months): 99.3%
Moisture ([1]; 3 months): 0.19%
Content of the crystalline Form A of the maleate of the compound of Formula (I) (HPLC) ([1]; 6 months): 99.4%
Moisture ([1]; 6 months): 0.20%
Content of the crystalline Form A of the maleate of the compound of Formula (I) (HPLC) ([1]; 9 months): 99.2%
Moisture ([1]; 9 months): 0.21%
Content of the crystalline Form A of the maleate of the compound of Formula (I) (HPLC) ([1]; 12 months): 99.4%
Moisture ([1]; 12 months): 0.22%
Content of the crystalline Form A of the maleate of the compound of Formula (I) (HPLC) ([1]; 18 months): 99.2%
Moisture ([1]; 18 months): 0.24%
Content of the crystalline Form A of the maleate of the compound of Formula (I) (HPLC) ([2]; 0 month): 99.4%
Moisture ([2]; 0 month): 0.17%
Content of the crystalline Form A of the maleate of the compound of Formula (I) (HPLC) ([2]; 1 month): 99.3%
Moisture ([2]; 1 month): 0.19%
Content of the crystalline Form A of the maleate of the compound of Formula (I) (HPLC) ([2]; 2 months): 99.2%
Moisture ([2]; 2 months): 0.18%
Content of the crystalline Form A of the maleate of the compound of Formula (I) (HPLC) ([2]; 3 months): 99.2%
Moisture ([2]; 3 months): 0.19%
Content of the crystalline Form A of the maleate of the compound of Formula (I) (HPLC) ([2]; 6 months): 99.3%
Moisture ([2]; 6 months): 0.20%
Structure (SMILES): C=CC(=O)N1CCC(Nc2cc3c(Nc4ccc(F)c(Cl)c4)ncnc3cc2OC)CC1
